The text below walks through data of US8987284B2, “Phosphorus containing quinazoline compounds and methods of use” (Newgen Therapeutics, Inc., priority 2009, dated 2015).

Read-outs that look alike come from different tables or passages of the source. Where only a bound is given, the exact number is not on record here.

The conditions of series [1]: dog; cited from earlier work.
The conditions of series [2]: rat; cited from earlier work.
In series [3] the test system is NCI-N87 xenograft. The series is described as follows: Anticancer effect against NCI-N87 xenograft. It is filed as in vivo, Balb/c nude mice. The method, then: (§1) NCI-N87 cells were purchased from ATCC, and were cultured in RPMI1640+10% FBS+1% P/S antibiotics. Balb/c nude mice were male, 6-8 week old, and weighed 18^±2 g. The cells were implanted subcutaneously into the nude mice (right flank) with 5.0×10^6 cells in 0.1 ml PBS. When the tumor size reached a volume of 200 (150-200) mm^3, the tumor-bearing nude mice derived from NCI-N87 cells were randomly assigned into four groups (10 mice/group). All groups were dosed oral, BID. One group were dosed with vehicle, one group with Lapatinib (75 mg/kg of free base, in the form of ditosylate monoydrate), and the rest two groups with Example 4 (50, 100 mg/kg, p.o. Bid, respectively). The administration period lasted 4 weeks. The tumor volume were measured twice a week, and the body weight were measured immediately before measuring the tumor volume throughout the whole study. On day 11 after initiation of the treatment, the dosing of Example 4 at 100 mg/kg was suspended, and the dosing of the group was resumed on day 15 at a reduced dose of 75 mg/Kg. […] (See FIG. 1).

For series [4] the following is noted: mouse; cited from earlier work.
Series [5] can be described thus: Pharmacokinetic study in dog. Particulars: for AUC(0-inf): read-out: AUC0-inf-obs; for half-life: read-out: T½ (converted). It is filed as in vivo, Beagle dogs. Further details: clearance: unit not given here. The procedure:
(§2) The dog PK protocol is shown here, while PK study protocol of mouse and rat are similar to dog. Beagle dogs of this study were 6-8 month old and weighed 8 to 10 kg. Example 4 was dissolved in 2% DMA and 98% (40% HP-β-CD in deionized water) to yield concentration at 2 mg/mL for both intravenous (IV, a bolus injection via the lateral tail vein) and oral (PO, via oral gavage) administrations. Blood samples (approximately 1 ml) was collected via cephalic into tubes containing EDTA-K3 anticoagulant pre-dose and post-dose at 5 min, 15 min, 30 min, 1 h, 2 h, 4 h, 6 h, 8 h and 24 h. Blood samples were centrifuged at approximately 8000 rpm for 6 minutes at 2-8° C. and the resulting plasma were separated, labeled and stored frozen at approximately −80° C. Plasma samples analysis was performed by means of LC-MS/MS. The analytical results were confirmed using quality control samples for intra-assay variation.

Series [6] deals with BT474 cells. The series is described as follows: Cell proliferation inhibition assay for BT474 (CCK-8). The series is classed as cell-based. The settings on record: Homo sapiens, BT-474; 72 h, 8 points. The method, then: Human breast cancer BT474 cells was cultured in low glucose DMEM (Life Technologies 12320-032) containing 10% fetal bovine serum (FBS) at 37° C. in a humidified 10% CO2, 90% air incubator. Cells were harvested using trypsin/EDTA, counted using a haemocytometer, and plated 10000 cell/well in a 96-well clear tissue culture plate. The cells were incubated for 24 h at 37° C. to allow adherence. A serials of concentrations of each compound (ranging from 30 uM to […], 5-fold dilution) in 96-well plate, and incubated for 72 h. Each concentration was tested in triplicate wells. During the cell proliferation assay, BT474 cells were cultured in low-glucose DMEM containing 5% FBS, 50 ug/ml gentamicin, and 0.3% v/v DMSO. The culture medium was removed via aspiration, and the cell viability was detected by using CCK-8 cell proliferation kit.

Series [7] is described as follows: Pharmacokinetic study in rat. The series is classed as in vivo. Details: clearance: unit not given here. Particulars: for AUC(0-inf): read-out: AUC0-inf-obs; for half-life: read-out: T½ (converted). The procedure: as §2
Series [8] is described as follows: Pharmacokinetic study in mouse. Details: clearance: unit not given here. The series is classed as in vivo. The settings on record: for AUC(0-inf): read-out: AUC0-inf-obs; for half-life: read-out: T½ (converted). The procedure:
as §2

Series [9] is described as follows: Body weight change of NCI-N87 xenograft mice. Particulars: po. The series is classed as in vivo, Balb/c nude mice. The procedure:
as §1, with “study.” for “study. On day 11 after initiation of the treatment, the dosing of Example 4 at 100 mg/kg was suspended, and the dosing of the group was resumed on day 15 at a reduced dose of 75 mg/Kg.”

Series [10] concerns the target T1, EGFR kinase (Homo sapiens, UniProt P00533).
T1 construct: purchased Invitrogen PV3872
Description: Kinase assay for EGFR (TR-FRET LanthaScreen). The series is classed as biochemical. Particulars: % inhibition at 100 nM or IC50 (nM). The method, then: The extent to which the compounds of the present invention modulate EGFR kinase activity can be determined using time-resolved Fret (TR-FRET) assay (LanthaScreen® kinase activity assay, from Invitrogen). The assay employs EGFR kinase (PV3872, Invitrogen), Tb-Py20 antibody (PV3552, Invitrogen) and fluorescein-poly GT (PV3610, In vitrogen)
The assay is performed in a Black 384-well plate (available from Corning). EGFR kinase (is diluted in TR-FRET Dilution Buffer (PV3189, InVitrogen) at concentration of 0.4 ug/ml as stock solution, and then 2-fold serial diluted. Addition of 1 mM ATP initiated the reaction, and the reaction is incubated for 1 h reaction at room temperature. 10 μL of the Tb-antibody (from Invitrogen)+EDTA (from Invitrogen) solution prepared was added to each well of the assay plate and mix briefly, and incubated for 30 min. The signal is monitored by using M5 microplate reader (Ex=332 nm, Em=488 nm and 518 nm). Each compound is tested in duplicate wells. EGFR without compound is used as control. Staurosporine (available from Sigma) is used as positive control compound. Inhibition was calculated as percentage of the EGFR activity (without compound)
For orientation: In TR-FRET formats the signal depends on donor and acceptor labels being close together.

Where [11] appears, read: plasma, IV, 2 mg/Kg, read-out: Vz.

T1 sequence (P00533 25-1210): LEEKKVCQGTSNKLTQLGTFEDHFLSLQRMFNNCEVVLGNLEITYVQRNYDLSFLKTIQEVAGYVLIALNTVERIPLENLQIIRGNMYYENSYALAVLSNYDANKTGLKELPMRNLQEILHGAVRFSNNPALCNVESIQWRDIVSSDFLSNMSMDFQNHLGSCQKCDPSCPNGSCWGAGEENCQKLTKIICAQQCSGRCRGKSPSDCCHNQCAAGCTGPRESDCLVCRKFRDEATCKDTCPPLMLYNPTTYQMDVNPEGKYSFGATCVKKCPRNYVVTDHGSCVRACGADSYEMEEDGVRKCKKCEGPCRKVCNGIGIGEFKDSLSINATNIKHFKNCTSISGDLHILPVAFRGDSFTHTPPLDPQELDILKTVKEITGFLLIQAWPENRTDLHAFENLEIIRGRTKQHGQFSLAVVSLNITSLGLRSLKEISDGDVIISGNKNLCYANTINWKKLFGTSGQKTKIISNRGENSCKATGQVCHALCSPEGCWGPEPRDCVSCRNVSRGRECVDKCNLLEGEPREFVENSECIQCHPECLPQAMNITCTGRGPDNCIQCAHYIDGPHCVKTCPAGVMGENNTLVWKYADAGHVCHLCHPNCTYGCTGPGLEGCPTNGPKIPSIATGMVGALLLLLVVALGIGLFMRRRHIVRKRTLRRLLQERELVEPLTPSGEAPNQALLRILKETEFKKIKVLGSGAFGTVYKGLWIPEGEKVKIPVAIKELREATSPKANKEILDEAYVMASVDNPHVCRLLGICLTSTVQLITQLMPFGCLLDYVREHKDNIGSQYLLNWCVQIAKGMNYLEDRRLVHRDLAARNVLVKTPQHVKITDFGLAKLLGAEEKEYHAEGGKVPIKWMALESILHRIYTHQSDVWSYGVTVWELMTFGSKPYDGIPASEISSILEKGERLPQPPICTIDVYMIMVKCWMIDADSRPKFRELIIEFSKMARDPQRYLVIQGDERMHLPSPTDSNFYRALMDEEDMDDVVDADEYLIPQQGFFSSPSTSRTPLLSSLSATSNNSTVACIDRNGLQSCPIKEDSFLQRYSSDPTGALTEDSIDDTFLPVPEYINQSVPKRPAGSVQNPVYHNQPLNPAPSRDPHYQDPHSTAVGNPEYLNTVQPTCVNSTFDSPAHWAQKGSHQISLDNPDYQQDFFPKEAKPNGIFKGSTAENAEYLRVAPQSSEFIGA

`CS(=O)(=O)CCNCc1ccc(-c2ccc3ncnc(Nc4ccc(OCc5cccc(F)c5)c(Cl)c4)c3c2)o1` [lapatinib, Lapatinib]: the “oral bioavailability (F)” value in series [1] was 63%; in series [2], 29%; in [4], 32%. Besides, the “tumor growth inhibition rate” value in series [3] (75 mg/Kg of free base, oral BID, 4 weeks) is 48%.

Regarding `CP1(=O)CCN(CC#Cc2ccc3ncnc(Nc4ccc(OCc5cccc(F)c5)c(Cl)c4)c3c2)CC1` [Example 4, N-(3-chloro-4-(3-fluorobenzyloxy)phenyl)-6-(3-(4-methyl-1,4-azaphosphino-1-yl)prop-1-ynyl)quinazolin-4-amine], the F was 100% in [5] (PO, 10 mg/Kg); 89.6% in [7] (PO, 10 mg/Kg); 36% in series [8] (PO, 10 mg/Kg). For the same molecule, the exposure AUC(0-t) in [5] (beagle, plasma, IV, 2 mg/Kg) is 1480 ng·h/mL; in [5] (beagle, plasma, PO, 10 mg/Kg), 7640 ng·h/mL; in series [7] (plasma, IV, 2 mg/Kg) it was 2130 ng·h/mL; in series [7] (plasma, PO, 10 mg/Kg), 9700 ng·h/mL; in series [8] (plasma, IV, 2 mg/Kg), 5070 ng·h/mL; in series [8] (plasma, PO, 10 mg/Kg) it was 8830 ng·h/mL. In addition, the maximum concentration (Cmax) in [5] (beagle, plasma, IV, 2 mg/Kg) was found to be 1150 ng/mL; in series [5] (beagle, plasma, PO, 10 mg/Kg), 2380 ng/mL; in [7] (plasma, IV, 2 mg/Kg), 1570 ng/mL; in [7] (plasma, PO, 10 mg/Kg), 1800 ng/mL; in series [8] (plasma, IV, 2 mg/Kg), 1520 ng/mL; in [8] (plasma, PO, 10 mg/Kg), 2840 ng/mL. Moreover, the clearance is 22.3 in series [5] (beagle, plasma, IV, 2 mg/Kg); 15.3 in series [7] (plasma, IV, 2 mg/Kg); 6.5 in [8] (plasma, IV, 2 mg/Kg). Also, the AUC(0-inf) in series [5] (beagle, plasma, IV, 2 mg/Kg) turned out to be 1490 ng·h/mL; in [5] (beagle, plasma, PO, 10 mg/Kg) it was 7720 ng·h/mL; in [7] (plasma, IV, 2 mg/Kg), 2180 ng·h/mL; in series [7] (plasma, PO, 10 mg/Kg) it was 9780 ng·h/mL; in series [8] (plasma, IV, 2 mg/Kg), 5080 ng·h/mL; in [8] (plasma, PO, 10 mg/Kg) it was 9060 ng·h/mL. Further, the half-life in series [5] (beagle, plasma, IV, 2 mg/Kg) was 2.46 h; in series [5] (beagle, plasma, PO, 10 mg/Kg), 3.8 h; in [7] (plasma, IV, 2 mg/Kg), 19.9 h; in [7] (plasma, PO, 10 mg/Kg), 11.5 h; in series [8] (plasma, IV, 2 mg/Kg) it was 0.59 h; in series [8] (plasma, PO, 10 mg/Kg), 1.41 h. In addition, the Vd is 1.44 L in series [5] (beagle, plasma, IV, 2 mg/Kg, read-out: Vz); 7.92 L in [7] (setting [11]); 0.33 L in [8] (setting [11]). The same molecule registered an IC50 in series [6] of less than 100 nM. For the same molecule, the “tumor growth inhibition rate” value in [3] (50 mg/Kg, p.o. BID, 4 weeks) is 85%; in series [3] (100/75 mg/Kg, p.o. BID, 4 weeks (suspended, resumed at 75 mg/Kg)), 88%. The “body weight loss (average)” value in [9] (100 mg/Kg, bid, day 10) was found to be 16.9%. Also, the “body weight after dosing suspension and resumption” value in series [9] (suspension for 3 days, resumed at 75 mg/kg) was “recovered and remained normal”. The “EGFR inhibition inhibit % at 100 nM or IC50 (nM)” value in series [10] is on record as “++ (>50% inhibition at 100 nM, or IC50 <100 nM for EGFR or ErbB2 kinases)”.

As a reminder, the AUC(0-t) is exposure summed from dosing to a finite time, without extrapolation to infinity. One may read the Cmax as the highest concentration seen after dosing. As a reminder, the IC50 is the concentration that inhibits the measured activity by half.
